Laboratory results taken from ChEMBL document CHEMBL5385848, “Discovery of novel hydroxyamidine based indoleamine 2,3-dioxygenase 1 (IDO1) and thioredoxin reductase 1 (TrxR1) dual inhibitors” (Eur J Med Chem, 2023).
The source made the active and inactive calls. The rule behind the calls is not given here.

Columns and labels:
[1] = target: T1, Thioredoxin reductase 1, cytoplasmic (Rattus norvegicus, UniProt O89049); experiment: Inhibition of recombinant rat TrxR1 incubated for 1 hr in presence of NADPH by microplate reader analysis
T1 sequence (O89049 whole entry): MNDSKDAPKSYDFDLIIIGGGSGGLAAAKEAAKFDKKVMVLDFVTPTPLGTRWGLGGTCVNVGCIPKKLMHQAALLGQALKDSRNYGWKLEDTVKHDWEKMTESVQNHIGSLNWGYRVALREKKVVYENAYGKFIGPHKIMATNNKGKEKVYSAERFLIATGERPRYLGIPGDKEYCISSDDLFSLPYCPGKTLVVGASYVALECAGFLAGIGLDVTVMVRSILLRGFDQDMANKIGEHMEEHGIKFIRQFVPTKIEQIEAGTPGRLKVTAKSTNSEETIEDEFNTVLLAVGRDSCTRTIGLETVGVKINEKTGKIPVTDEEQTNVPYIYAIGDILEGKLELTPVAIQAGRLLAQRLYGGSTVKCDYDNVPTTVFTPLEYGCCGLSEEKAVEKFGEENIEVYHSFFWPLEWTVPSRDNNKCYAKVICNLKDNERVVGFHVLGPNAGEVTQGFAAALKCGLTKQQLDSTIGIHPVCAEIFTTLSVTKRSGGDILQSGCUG

HCT-116 = experiment: Antiproliferative activity against human HCT-116 cells assessed as cell growth inhibition incubated for 48 hrs by CCK-8 assay; type: functional, cell-based; conditions: HCT-116, 48 h
[2] = target: Indoleamine 2,3-dioxygenase 1 (Homo sapiens, UniProt P14902); experiment: Inhibition of recombinant human IDO1 using L-Trp as substrate incubated for 1 hr
Chain of Indoleamine 2,3-dioxygenase 1 (P14902 whole entry): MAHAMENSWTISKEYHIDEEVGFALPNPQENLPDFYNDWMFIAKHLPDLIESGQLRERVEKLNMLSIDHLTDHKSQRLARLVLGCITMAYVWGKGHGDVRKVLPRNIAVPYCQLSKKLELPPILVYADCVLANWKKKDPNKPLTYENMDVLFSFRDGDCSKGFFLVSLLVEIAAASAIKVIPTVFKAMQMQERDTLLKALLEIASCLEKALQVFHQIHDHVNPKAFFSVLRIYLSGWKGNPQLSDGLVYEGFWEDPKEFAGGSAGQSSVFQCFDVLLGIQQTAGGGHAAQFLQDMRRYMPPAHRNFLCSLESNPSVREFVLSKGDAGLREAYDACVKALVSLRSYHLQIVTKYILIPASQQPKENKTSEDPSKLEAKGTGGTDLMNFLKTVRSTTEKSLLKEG

[3] = Cytotoxicity against human HeLa cells incubated for 48 hrs by CCK-8 assay; type: toxicity, cell-based
[4] = Cytotoxicity against mouse CT26 cells incubated for 48 hrs by CCK-8 assay; type: toxicity, cell-based
[5] = Cytotoxicity against human HCT-116 cells incubated for 48 hrs by CCK-8 assay; type: toxicity, cell-based
[6] = target: T2, Indoleamine 2,3-dioxygenase 2 (Homo sapiens, UniProt Q6ZQW0); experiment: Inhibition of IDO2 (unknown origin) using D-Trp as substrate incubated for 1 hr
T2 sequence (Q6ZQW0 whole entry): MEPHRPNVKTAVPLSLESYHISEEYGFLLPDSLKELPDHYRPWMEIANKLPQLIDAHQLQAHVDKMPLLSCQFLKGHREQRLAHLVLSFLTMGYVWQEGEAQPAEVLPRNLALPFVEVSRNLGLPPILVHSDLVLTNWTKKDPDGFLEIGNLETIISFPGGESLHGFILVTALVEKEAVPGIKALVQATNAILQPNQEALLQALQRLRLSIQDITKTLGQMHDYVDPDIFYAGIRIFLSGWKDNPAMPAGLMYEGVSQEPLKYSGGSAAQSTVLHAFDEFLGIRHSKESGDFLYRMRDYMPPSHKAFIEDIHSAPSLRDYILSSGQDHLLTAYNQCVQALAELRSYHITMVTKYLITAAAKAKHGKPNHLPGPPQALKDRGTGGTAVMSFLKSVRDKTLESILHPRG

[7] = Toxicity in athymic nude BALB/c mouse assessed as weight gain at 60 mg/kg, ig administered daily for 28 days and measured every 4 days; type: organism-based; conditions: in vivo, po, 672 h, time 28 day
[8] = target: T3, Thioredoxin reductase 1, cytoplasmic (Homo sapiens) (UniProt Q16881); experiment: Inhibition of TrxR1 in human HeLa cells incubated for 24 hrs; type: cell-based
T3 sequence (whole entry): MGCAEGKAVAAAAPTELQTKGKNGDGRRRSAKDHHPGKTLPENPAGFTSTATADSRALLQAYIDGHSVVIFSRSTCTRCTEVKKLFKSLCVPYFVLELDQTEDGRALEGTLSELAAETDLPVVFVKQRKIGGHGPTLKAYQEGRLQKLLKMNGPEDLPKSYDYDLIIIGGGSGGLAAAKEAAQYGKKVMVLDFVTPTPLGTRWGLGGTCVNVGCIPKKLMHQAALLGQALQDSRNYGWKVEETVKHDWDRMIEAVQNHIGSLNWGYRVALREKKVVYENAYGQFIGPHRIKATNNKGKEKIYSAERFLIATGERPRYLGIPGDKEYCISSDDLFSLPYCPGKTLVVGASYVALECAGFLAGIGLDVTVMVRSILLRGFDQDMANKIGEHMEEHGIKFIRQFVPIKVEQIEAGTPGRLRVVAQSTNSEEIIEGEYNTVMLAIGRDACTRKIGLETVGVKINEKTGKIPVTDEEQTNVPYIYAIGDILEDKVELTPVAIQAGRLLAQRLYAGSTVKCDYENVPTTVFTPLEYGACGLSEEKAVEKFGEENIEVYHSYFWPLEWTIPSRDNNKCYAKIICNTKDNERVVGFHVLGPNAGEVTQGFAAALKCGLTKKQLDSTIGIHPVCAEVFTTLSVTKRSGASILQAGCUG

[9] = target: T3, Thioredoxin reductase 1, cytoplasmic (Homo sapiens); experiment: Inhibition of TrxR1 in human HCT-116 cells incubated for 24 hrs; type: cell-based
[10] = target: T4, Thioredoxin reductase 1, cytoplasmic (Mus musculus) (UniProt Q9JMH6); experiment: Inhibition of TrxR1 in mouse CT26 cells incubated for 24 hrs; type: cell-based
T4 sequence (whole entry): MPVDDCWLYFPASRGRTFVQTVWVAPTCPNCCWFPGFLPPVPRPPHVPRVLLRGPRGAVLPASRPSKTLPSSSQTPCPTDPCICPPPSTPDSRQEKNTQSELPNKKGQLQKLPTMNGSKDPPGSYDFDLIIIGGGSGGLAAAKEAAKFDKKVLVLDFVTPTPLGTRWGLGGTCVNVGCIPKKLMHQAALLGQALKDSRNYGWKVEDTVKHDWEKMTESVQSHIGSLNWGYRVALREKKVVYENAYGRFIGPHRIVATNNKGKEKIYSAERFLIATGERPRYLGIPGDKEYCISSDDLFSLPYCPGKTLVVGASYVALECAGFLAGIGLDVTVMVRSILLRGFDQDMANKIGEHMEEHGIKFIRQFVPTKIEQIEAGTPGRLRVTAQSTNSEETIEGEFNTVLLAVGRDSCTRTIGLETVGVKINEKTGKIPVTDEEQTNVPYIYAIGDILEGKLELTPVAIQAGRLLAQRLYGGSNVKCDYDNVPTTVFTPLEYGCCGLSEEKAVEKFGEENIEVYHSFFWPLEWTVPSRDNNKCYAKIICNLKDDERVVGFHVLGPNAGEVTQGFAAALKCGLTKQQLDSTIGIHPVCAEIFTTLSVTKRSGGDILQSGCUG

[11] = target: Indoleamine 2,3-dioxygenase 1 (Mus musculus) (UniProt P28776); experiment: In vivo inhibition of IDO1 in C57BL/6 mouse assessed as reduction in plasma Kyn level at 60 mg/kg, po administered once daily by LC-MS/MS analysis; type: functional, organism-based
Chain of Indoleamine 2,3-dioxygenase 1 (Mus musculus) (P28776 whole entry, looked up): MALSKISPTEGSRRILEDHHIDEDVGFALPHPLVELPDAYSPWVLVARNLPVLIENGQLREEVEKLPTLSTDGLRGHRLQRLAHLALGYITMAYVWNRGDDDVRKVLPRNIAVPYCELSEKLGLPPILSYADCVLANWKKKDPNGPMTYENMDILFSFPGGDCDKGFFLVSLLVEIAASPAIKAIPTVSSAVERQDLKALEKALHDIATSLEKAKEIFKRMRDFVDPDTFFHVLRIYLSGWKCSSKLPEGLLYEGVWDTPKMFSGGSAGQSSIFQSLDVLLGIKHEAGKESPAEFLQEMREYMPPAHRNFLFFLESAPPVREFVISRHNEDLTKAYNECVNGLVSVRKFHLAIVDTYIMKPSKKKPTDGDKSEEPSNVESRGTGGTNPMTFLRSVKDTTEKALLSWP

[12] = target: Indoleamine 2,3-dioxygenase 1 (Mus musculus) (UniProt P28776); experiment: In vivo inhibition of IDO1 in C57BL/6 mouse assessed as increase in plasma Trp level at 60 mg/kg, po administered once daily by LC-MS/MS analysis; type: functional, organism-based
[13] = target: Indoleamine 2,3-dioxygenase 1 (Mus musculus) (UniProt P28776); experiment: In vivo inhibition of IDO1 in C57BL/6 mouse assessed as reduction in plasma Kyn/Trp ratio at 60 mg/kg, po administered once daily by LC-MS/MS analysis; type: functional, organism-based
CT26 [14] = experiment: Antitumor activity against mouse CT26 cells implanted in […] BALB/c mouse assessed as increase in CD8 T lymphocytes at 60 mg/kg, ig administered daily for 28 days and measured every 4 days; type: functional, organism-based; conditions: time 28.0 day
CT26 [15] = experiment: Antitumor activity against mouse CT26 cells implanted in […] BALB/c mouse assessed as increase in CD4 Th lymphocytes at 60 mg/kg, ig administered daily for 28 days and measured every 4 days; type: functional, organism-based; conditions: time 28.0 day
CT26 [16] = experiment: Antitumor activity against mouse CT26 cells implanted in athymic nude BALB/c mouse assessed as reduction in CD4+CD25+Foxp3+ lymphocytes at 60 mg/kg, ig administered daily for 28 days and measured every 4 days by immunofluorescence analysis; type: functional, organism-based; conditions: time 28.0 day
CT26 [17] = experiment: Antitumor activity against mouse CT26 cells implanted in […] BALB/c mouse assessed as reduction in nTreg lymphocytes at 60 mg/kg, ig administered daily for 28 days and measured every 4 days by immunofluorescence analysis; type: functional, organism-based; conditions: time 28.0 day
CT26 [18] = experiment: Antitumor activity against mouse CT26 cells implanted in athymic nude BALB/c mouse assessed as reduction in proliferative nTreg lymphocytes at 60 mg/kg, ig administered daily for 28 days and measured every 4 days by immunofluorescence analysis; type: functional, organism-based; conditions: time 28.0 day

Structure (SMILES) | IC50 [1] [µM] | IC50 (HCT-116) [µM] | IC50 [2] [µM] | further results
O=C(Cc1cccc(OC(F)(F)F)c1)Nc1nnc(CCCNc2nonc2/C(=N\O)NCCc2ccc(Br)cc2)s1 | 10.5 | 3.1 | 5.58 | –
O=C(Cc1cccc(OC(F)(F)F)c1)Nc1nnc(CCCNc2nonc2/C(=N\O)NCCc2ccc(Cl)cc2)s1 | 7.63 | 3.79 | 17.5 | –
O=C(Cc1ccccc1)Nc1nnc(CCCNc2nonc2/C(=N\O)NCCc2ccc(F)cc2)s1 | 25.2 | 5.59 | 13.2 | –
O=C(Cc1ccccc1)Nc1nnc(CCCNc2nonc2/C(=N\O)Nc2ccc(F)c(Br)c2)s1 | 3.74 | 5.98 | 0.06 | –
O=C(Cc1ccc(O)cc1)Nc1nnc(CCCNc2nonc2/C(=N\O)NCCc2ccc(F)cc2)s1 | 13.5 | 5.31 | 4.37 | –
NS(=O)(=O)NCCNc1nonc1C(=NO)Nc1ccc(F)c(Br)c1 [EPACADOSTAT] | – | – | – | IC50 at 48 h [3]: 4.63 µM; IC50 at 48 h [4]: 1490 nM; IC50 at 48 h [5]: 260 nM; IC50 [6]: 630 nM; Activity [7]: Toxic
O=C(Cc1ccc(O)cc1)Nc1nnc(CCCNc2nonc2/C(=N\O)NCCc2ccc(Cl)cc2)s1 | 1.96 | 4.42 | 10.3 | –
NS(=O)(=O)NCCNc1nonc1/C(=N/O)Nc1ccc(F)c(Br)c1 | – | – | – | inhibition [8]: inactive; inhibition [9]: inactive; inhibition [10]: inactive; Activity [11]: Active; Activity [12]: Active; Activity [13]: Active; Activity (CT26 [14]): Active; Activity (CT26 [15]): Active; Activity (CT26 [16]): Active; Activity (CT26 [17]): Active; Activity (CT26 [18]): Active
O=C(Cc1ccccc1)Nc1nnc(CCCNc2nonc2/C(=N\O)NCCc2ccc(Cl)cc2)s1 | 6.46 | 4.65 | 7.88 | –
O=C(Cc1cccc(OC(F)(F)F)c1)Nc1nnc(CCCNc2nonc2/C(=N\O)Nc2ccc(F)c(Br)c2)s1 | 3.69 | 5.25 | 0.12 | –
O=C(Cc1ccc(O)cc1)Nc1nnc(CCCNc2nonc2/C(=N\O)NCCc2ccc(Br)cc2)s1 | 18.3 | 4.62 | 10.1 | –
